Assay results: patent US20200361871A1 (Enterprise Therapeutics Ltd., priority 2018, published 2020)

Target: human TMEM16A (TMEM16Aabc variant) (Homo sapiens, UniProt Q5XXA6, DEL476-501, form not given)
Experiment: Automated whole-cell patch clamp (Qpatch) TMEM16A potentiator assay in FRT cells stably expressing human TMEM16A
Type: cell-based
Conditions: for % Potentiation @ 3.33 μM Avg: 3.33 μM solution of test compound, percentage increase of baseline TMEM16A current; for EC50: calculated EC50, Qpatch TMEM16A current at +70 mV
Method in brief: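 Potentiation was read as the rise in peak +70 mV current over baseline (%), from cumulative 5-min additions of compound. Recordings used whole-cell automated patch of FRT cells stably carrying human TMEM16Aabc, with pipette Ca2+ buffered to give ~20% maximal current. EC50 and efficacy came from concentration-response fits.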

Chain of human TMEM16A (TMEM16Aabc variant) (Q5XXA6 with tags, fused parts or gaps DEL476-501): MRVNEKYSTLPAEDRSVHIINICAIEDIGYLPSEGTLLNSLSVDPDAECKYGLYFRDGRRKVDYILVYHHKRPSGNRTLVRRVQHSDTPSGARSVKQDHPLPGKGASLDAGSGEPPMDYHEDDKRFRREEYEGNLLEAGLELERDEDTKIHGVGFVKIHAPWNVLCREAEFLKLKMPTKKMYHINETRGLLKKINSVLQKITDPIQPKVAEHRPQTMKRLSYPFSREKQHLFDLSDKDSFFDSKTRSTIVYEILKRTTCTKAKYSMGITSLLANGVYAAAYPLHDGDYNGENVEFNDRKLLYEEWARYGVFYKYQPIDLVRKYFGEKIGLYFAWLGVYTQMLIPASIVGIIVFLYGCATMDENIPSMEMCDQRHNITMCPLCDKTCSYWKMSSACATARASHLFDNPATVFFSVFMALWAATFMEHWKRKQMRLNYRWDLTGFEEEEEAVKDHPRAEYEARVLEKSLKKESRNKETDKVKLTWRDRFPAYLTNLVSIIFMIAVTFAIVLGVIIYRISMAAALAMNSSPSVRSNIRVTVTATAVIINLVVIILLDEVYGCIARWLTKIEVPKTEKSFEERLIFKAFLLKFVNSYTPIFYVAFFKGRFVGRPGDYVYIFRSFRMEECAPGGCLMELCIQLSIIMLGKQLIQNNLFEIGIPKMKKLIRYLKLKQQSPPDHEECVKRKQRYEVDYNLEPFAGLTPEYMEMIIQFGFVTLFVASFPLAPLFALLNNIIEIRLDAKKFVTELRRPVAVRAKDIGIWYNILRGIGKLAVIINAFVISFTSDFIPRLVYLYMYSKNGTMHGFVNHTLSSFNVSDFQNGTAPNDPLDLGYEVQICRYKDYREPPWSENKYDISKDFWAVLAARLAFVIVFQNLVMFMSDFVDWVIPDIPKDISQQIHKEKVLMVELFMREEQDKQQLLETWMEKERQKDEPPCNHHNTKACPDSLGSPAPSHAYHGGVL

SMILES: CC(C)(C)NC(=O)c1cc(NC(=O)Cc2cc(Cl)ccc2O)c(F)cn1 [Example 28, N-tert-butyl-4-[[2-(5-chloro-2-hydroxy-phenyl)acetyl]amino]-5-fluoro-pyridine-2-carboxamide]
- % Potentiation @ 3.33 μM Avg: 318%
- EC50: 400 nM

SMILES: CC(C)(C)NC(=O)c1nccc(NC(=O)Cc2cc(Cl)ccc2O)c1F [Example 28.1, N-tert-Butyl-4-[[2-(5-chloro-2-hydroxy-phenyl)acetyl]amino]-3-fluoro-pyridine-2-carboxamide]
- % Potentiation @ 3.33 μM Avg: 68%

SMILES: N#CC1(NC(=O)c2cc(NC(=O)Cc3ccccc3Cl)ccn2)CCC1 [Example 30, 4-[[2-(2-Chlorophenyl)acetyl]amino]-N-(1-cyanocyclobutyl)pyridine-2-carboxamide]
- % Potentiation @ 3.33 μM Avg: 113%
- EC50: 1220 nM

SMILES: C#CC(C)(C)NC(=O)c1cc(NC(=O)Cc2ccccc2Cl)ccn1 [Example 30.1, 4-[[2-(2-Chlorophenyl)acetyl]amino]-N-(1,1-dimethylprop-2-ynyl)pyridine-2-carboxamide]
- % Potentiation @ 3.33 μM Avg: 245%
- EC50: 140 nM

SMILES: O=C(Cc1ccccc1Cl)Nc1ccnc(C(=O)NC23CCC(F)(C2)C3)c1 [Example 30.2, 4-[[2-(2-Chlorophenyl)acetyl]amino]-N-(4-fluoro-1-bicyclo[2.1.1]hexanyl)pyridine-2-carboxamide]
- % Potentiation @ 3.33 μM Avg: 221%
- EC50: 180 nM

SMILES: CC(C)(NC(=O)c1cc(NC(=O)Cc2ccccc2Cl)ccn1)C1CC1 [Example 30.3, 4-[[2-(2-Chlorophenyl)acetyl]amino]-N-(1-cyclopropyl-1-methyl-ethyl)pyridine-2-carboxamide]
- % Potentiation @ 3.33 μM Avg: 100%
- EC50: 250 nM

SMILES: CC(C)(C#N)NC(=O)c1cc(NC(=O)Cc2ccccc2Cl)ccn1 [Example 30.3a, 4-[[2-(2-Chlorophenyl)acetyl]amino]-N-(1-cyano-1-methyl-ethyl)pyridine-2-carboxamide]
- % Potentiation @ 3.33 μM Avg: 221%

SMILES: CC12CC(NC(=O)c3cc(NC(=O)Cc4ccccc4Cl)ccn3)(C1)C2 [Example 30.4, 4-[[2-(2-Chlorophenyl)acetyl]amino]-N-(1-methyl-3-bicyclo[1.1.1]pentanyl)pyridine-2-carboxamide]
- % Potentiation @ 3.33 μM Avg: 95%
- EC50: 750 nM

SMILES: N#CC12CC(NC(=O)c3cc(NC(=O)Cc4ccccc4Cl)ccn3)(C1)C2 [Example 30.5, 4-[[2-(2-Chlorophenyl)acetyl]amino]-N-(1-cyano-3-bicyclo[1.1.1]pentanyl) pyridine-2-carboxamide]
- % Potentiation @ 3.33 μM Avg: 63%

SMILES: O=C(Cc1ccccc1Cl)Nc1ccnc(C(=O)NC2CC2(F)F)c1 (stereo not drawn) [Example 30.6, 4-[[2-(2-Chlorophenyl)acetyl]amino]-N-(2,2-difluorocyclopropyl)pyridine-2-carboxamide]
- % Potentiation @ 3.33 μM Avg: 80%

SMILES: N#CC1(NC(=O)c2cc(NC(=O)Cc3ccccc3Cl)ccn2)CC1 [Example 30.7, 4-[[2-(2-Chlorophenyl)acetyl]amino]-N-(1-cyanocyclopropyl)pyridine-2-carboxamide]
- % Potentiation @ 3.33 μM Avg: 124%
- EC50: 340 nM

SMILES: CC1(NC(=O)c2cc(NC(=O)Cc3ccccc3Cl)ccn2)CC1 [Example 30.8, 4-[[2-(2-Chlorophenyl)acetyl]amino]-N-(1-methylcyclopropyl)pyridine-2-carboxamide]
- % Potentiation @ 3.33 μM Avg: 121%
- EC50: 700 nM

SMILES: O=C(Cc1ccccc1Cl)Nc1ccnc(C(=O)NC23CC(F)(C2)C3)c1 [Example 30.9, 4-[[2-(2-Chlorophenyl)acetyl]amino]-N-(3-fluoro-1-bicyclo[1.1.1]pentanyl)pyridine-2-carboxamide]
- % Potentiation @ 3.33 μM Avg: 100%
- EC50: 470 nM

SMILES: CC(C)(CF)NC(=O)c1cc(NC(=O)Cc2ccccc2Cl)ccn1 [Example 30.10, 4-[[2-(2-Chlorophenyl)acetyl]amino]-N-(2-fluoro-1,1-dimethyl-ethyl)pyridine-2-carboxamide]
- % Potentiation @ 3.33 μM Avg: 265%

SMILES: C#CC1(NC(=O)c2cc(NC(=O)Cc3ccccc3Cl)ccn2)CCOCC1 [Example 30.11, 4-[[2-(2-Chlorophenyl)acetyl]amino]-N-(4-ethynyltetrahydropyran-4-yl)pyridine-2-carboxamide]
- % Potentiation @ 3.33 μM Avg: 125%
- EC50: 220 nM

SMILES: N#CC1(NC(=O)c2cc(NC(=O)Cc3ccccc3Cl)ccn2)CCCC1 [Example 30.12, 4-[[2-(2-Chlorophenyl)acetyl]amino]-N-(1-cyanocyclopentyl)pyridine-2-carboxamide]
- % Potentiation @ 3.33 μM Avg: 314%

SMILES: CC(C)(NC(=O)c1cc(NC(=O)Cc2ccccc2Cl)ccn1)C(F)F [Example 30.13, 4-[[2-(2-Chlorophenyl)acetyl]amino]-N-(2,2-difluoro-1,1-dimethyl-ethyl)pyridine-2-carboxamide]
- % Potentiation @ 3.33 μM Avg: 205%
- EC50: 380 nM

SMILES: N#CC1(NC(=O)c2cc(NC(=O)Cc3cc(Cl)ccc3O)ccn2)CCOCC1 [Example 31, 4-[[2-(5-Chloro-2-hydroxy-phenyl)acetyl]amino]-N-(4-cyanotetrahydropyran-4-yl)pyridine-2-carboxamide]
- % Potentiation @ 3.33 μM Avg: 223%
- EC50: 120 nM

SMILES: C#CC1(NC(=O)c2cc(NC(=O)Cc3cc(Cl)ccc3O)ccn2)CCCC1 [Example 31.2, 4-[[2-(5-Chloro-2-hydroxy-phenyl)acetyl]amino]-N-(1-ethynylcyclopentyl)pyridine-2-carboxamide]
- % Potentiation @ 3.33 μM Avg: 110%
- EC50: 10 nM

SMILES: O=C(Cc1cc(Cl)ccc1O)Nc1ccnc(C(=O)N[C@H]2CCCC[C@@H]2O)c1 [Example 31.3, 4-[2-(5-Chloro-2-hydroxyphenyl)acetamido]-N-[(1s,2s)-2-hydroxycyclohexyl] pyridine-2-carboxamide]
- % Potentiation @ 3.33 μM Avg: 205%
- EC50: 210 nM

SMILES: C#CC1(NC(=O)c2cc(NC(=O)Cc3cc(Cl)ccc3O)ccn2)CCOCC1 [Example 31.4, 4-[[2-(5-Chloro-2-hydroxy-phenyl)acetyl]amino]-N-(4-ethynyltetrahydropyran-4-yl)pyridine-2-carboxamide]
- % Potentiation @ 3.33 μM Avg: 186%
- EC50: 20 nM

SMILES: Nc1cccc(CNC(=O)c2cc(NC(=O)Cc3cc(Cl)ccc3O)ccn2)n1 [Example 32, N-[(6-Amino-2-pyridyl)methyl]-4-[[2-(5-chloro-2-hydroxy-phenyl)acetyl]amino]pyridine-2-carboxamide]
- % Potentiation @ 3.33 μM Avg: 171%

SMILES: O=C(O)CCCCCCCCCCCNC(=O)c1cc(NC(=O)Cc2cc(Cl)ccc2O)ccn1 [Example 32.1, 12-[[4-[[2-(5-Chloro-2-hydroxy-phenyl)acetyl]amino]pyridine-2-carbonyl]amino]dodecanoic acid]
- % Potentiation @ 3.33 μM Avg: 246%

SMILES: O=C(Cc1cc(Cl)ccc1O)Nc1ccnc(C(=O)NCc2cccnc2)c1 [Example 32.2, 4-[[2-(5-Chloro-2-hydroxy-phenyl)acetyl]amino]-N-(3-pyridylmethyl)pyridine-2-carboxamide]
- % Potentiation @ 3.33 μM Avg: 183%
- EC50: 340 nM

SMILES: O=C(Cc1cc(Cl)ccc1O)Nc1ccnc(C(=O)NCc2ccccn2)c1 [Example 32.3, 4-[[2-(5-Chloro-2-hydroxy-phenyl)acetyl]amino]-N-(2-pyridylmethyl)pyridine-2-carboxamide]
- % Potentiation @ 3.33 μM Avg: 288%
- EC50: 290 nM

SMILES: O=C(Cc1cc(Cl)ccc1O)Nc1ccnc(C(=O)NCc2ccncc2)c1 [Example 32.4, 4-[[2-(5-Chloro-2-hydroxy-phenyl)acetyl]amino]-N-(4-pyridylmethyl)pyridine-2-carboxamide]
- % Potentiation @ 3.33 μM Avg: 187%
- EC50: 710 nM

SMILES: O=C(Cc1cc(Cl)ccc1O)Nc1ccnc(C(=O)NCc2ccccc2O)c1 [Example 32.5, 4-[[2-(5-Chloro-2-hydroxy-phenyl)acetyl]amino]-N-[(2-hydroxyphenyl)methyl]pyridine-2-carboxamide]
- % Potentiation @ 3.33 μM Avg: 177%
- EC50: 590 nM

SMILES: CC(C)(CN1CCOCC1)NC(=O)c1cc(NC(=O)Cc2cc(Cl)ccc2O)ccn1 [Example 32.6, 4-[[2-(5-Chloro-2-hydroxy-phenyl)acetyl]amino]-N-(1,1-dimethyl-2-morpholino-ethyl)pyridine-2-carboxamide]
- % Potentiation @ 3.33 μM Avg: 153%
- EC50: 820 nM

SMILES: CC(C)(CO)NC(=O)c1cc(NC(=O)Cc2cc(Cl)ccc2O)ccn1 [Example 32.7, 4-[[2-(5-Chloro-2-hydroxy-phenyl)acetyl]amino]-N-(2-hydroxy-1,1-dimethyl-ethyl)pyridine-2-carboxamide]
- % Potentiation @ 3.33 μM Avg: 111%
- EC50: 200 nM

SMILES: O=C(Cc1cc(Cl)ccc1O)Nc1ccnc(C(=O)NC2CCNCC2(F)F)c1 (stereo not drawn) [Example 32.8, 4-[[2-(5-Chloro-2-hydroxy-phenyl)acetyl]amino]-N-(3,3-difluoro-4-piperidyl)pyridine-2-carboxamide]
- % Potentiation @ 3.33 μM Avg: 79%

SMILES: O=C(Cc1cc(Cl)ccc1O)Nc1ccnc(C(=O)Nc2ncc[nH]2)c1 [Example 32.9, 4-[[2-(5-Chloro-2-hydroxy-phenyl)acetyl]amino]-N-(1H-imidazol-2-yl)pyridine-2-carboxamide]
- % Potentiation @ 3.33 μM Avg: 31%

SMILES: O=C(Cc1cc(Cl)ccc1O)Nc1ccnc(C(=O)N[C@@H]2CCC[C@H]2O)c1 [Example 33, 4-[[2-(5-Chloro-2-hydroxy-phenyl)acetyl]amino]-N-[(1R,2R)-2-hydroxycyclopentyl] pyridine-2-carboxamide]
- % Potentiation @ 3.33 μM Avg: 245%
- EC50: 240 nM

SMILES: CC(C)(C#N)NC(=O)c1cc(NC(=O)Cc2cc(Cl)ccc2O)ccn1 [Example 34, 4-[[2-(5-Chloro-2-hydroxy-phenyl)acetyl]amino]-N-(1-cyano-1-methyl-ethyl)pyridine-2-carboxamide]
- % Potentiation @ 3.33 μM Avg: 245%
- EC50: 90 nM

SMILES: CC1(O)CCC(NC(=O)c2cc(NC(=O)Cc3cc(Cl)ccc3O)ccn2)CC1 (stereo not drawn) [Example 35.1, 4-[[2-(5-Chloro-2-hydroxy-phenyl)acetyl]amino]-N-(4-hydroxy-4-methyl-cyclohexyl) pyridine-2-carboxamide]
- % Potentiation @ 3.33 μM Avg: 51%
